Consider 13 molecules from ChEMBL document CHEMBL1201862, “PubChem BioAssay data set” (2004).

The structures appear in SMILES notation.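 1) Cells in 96-well plates. 2) Compound, 48 h, 5 concentrations. 3) Linear interpolation between surrounding doses. 4) Unreached endpoint = highest concentration. GI50 is the concentration that inhibits growth by half.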 Active and inactive are the calls of the source. Cut-off read from the data, not from the text of the source: active = GI50 up to about 1.1 µM and inactive = higher.

Test systems include RPMI-8226; UO-31; CAKI-1; SK-MEL-5; SK-MEL-28; COLO 205; K562; SR; IGROV-1; SK-MEL-2; 786-0; RXF 393; OVCAR-8; HT-29; LOX IMVI; MDA-MB-231; MDA-MB-435; T47D; PC-3.
Common to all, as to experiment: inhibition of tumour cell growth, NCI panel, 48 h

In the case of `CCCCCCCCCCCCC(=O)CCCCC(=O)O`, the GI50 with RPMI-8226 is 16.7 µM (inactive); with UO-31, 23.9 µM (inactive); in the test with CAKI-1, 32.5 µM (inactive); in the test with SK-MEL-5, 18.2 µM (inactive); in the test with SK-MEL-28 it was 20.7 µM (inactive); in the test on COLO 205, 16.7 µM (inactive). Besides, the GI50 in the test on K562 was 16.2 µM (inactive); with SR it was 19.5 µM (inactive); in the test with IGROV-1, 17.3 µM (inactive); with SK-MEL-2, 20.7 µM (inactive); in the test on 786-0, 27.2 µM (inactive); in the test on RXF 393 it was 34.9 µM (inactive). Moreover, the GI50 with OVCAR-8 was 17.5 µM (inactive); in the test on HT-29, 15.8 µM (inactive); in the test on LOX IMVI it was 21 µM (inactive).

`COC(=O)C1=C(O)C(C(=O)OC)[C@@]2(O)[C@@H](C(=O)OC)[C@H](C)[C@@H](C)[C@@H]1[C@@H]2C(=O)OC` (stereo partly specified): the GI50 in the test on RPMI-8226 was 51.1 µM (inactive); with UO-31, 38.5 µM (inactive); in the test on SK-MEL-28, > 100 µM (inactive); in the test with K562, 35.6 µM (inactive); with MDA-MB-231 it was > 100 µM (inactive); in the test with SR, 28.2 µM (inactive). Moreover, the GI50 is 17.9 µM (inactive) in the test with MDA-MB-435; 48.5 µM (inactive) in the test on SK-MEL-2; 13.2 µM (inactive) with RXF 393; 55.7 µM (inactive) with HT-29; 51.9 µM (inactive) in the test with LOX IMVI; > 100 µM (inactive) in the test with T47D.

On to `CCOP1(=O)CC(C)=C(Cl)C(OC)C1` (stereo unspecified), for which the GI50 was > 100 µM (inactive) in the test on RPMI-8226; > 100 µM (inactive) in the test with CAKI-1; > 100 µM (inactive) in the test on SK-MEL-5; > 100 µM (inactive) with SK-MEL-28; > 100 µM (inactive) in the test on COLO 205; 30.5 µM (inactive) with K562. The GI50 in the test with MDA-MB-231, with SR, in the test on MDA-MB-435, in the test with PC-3, with IGROV-1 and in the test with SK-MEL-2 was > 100 µM (inactive) in each case. Besides, the GI50 was > 100 µM (inactive) with 786-0; > 100 µM (inactive) in the test on RXF 393; > 100 µM (inactive) with OVCAR-8; > 100 µM (inactive) in the test on HT-29; 61.7 µM (inactive) in the test on LOX IMVI.

As to `O=P1(O)C=CC2(CCCC2)O1`, the GI50 with SK-MEL-5, in the test on SK-MEL-28, in the test with COLO 205, with K562, in the test on SR and in the test on MDA-MB-435 was > 100 µM (inactive) each time. The GI50 with PC-3, in the test on IGROV-1, in the test with SK-MEL-2, with 786-0, with OVCAR-8 and in the test with HT-29 was > 100 µM (inactive) throughout. For the same molecule, the GI50 in the test on LOX IMVI and with T47D was > 100 µM (inactive) throughout.

Turning to `C[Si](C)(C)C#CCOC=C1CC1`, the GI50 in the test on UO-31, with CAKI-1, in the test with SK-MEL-5, in the test on SK-MEL-28, in the test with COLO 205 and in the test on K562 was > 100 µM (inactive) each time. Further, the GI50 was > 100 µM (inactive) in the test with MDA-MB-231; 52.5 µM (inactive) in the test with SR; > 100 µM (inactive) in the test on PC-3; 70.8 µM (inactive) in the test with IGROV-1; > 100 µM (inactive) in the test with SK-MEL-2; 47.1 µM (inactive) with 786-0. The GI50 with RXF 393 was 3.45 µM (inactive); in the test with OVCAR-8, > 100 µM (inactive); with HT-29, > 100 µM (inactive); with LOX IMVI, 28.6 µM (inactive); in the test with T47D it was > 100 µM (inactive).

Take `C=C1CN=C(Nc2ccc(Cl)cc2)S1`: the GI50 in the test with RPMI-8226 is 83.8 µM (inactive); with UO-31 it was > 100 µM (inactive); in the test on CAKI-1 it was > 10 µM (inactive); with SK-MEL-5, > 100 µM (inactive); in the test on SK-MEL-28, > 100 µM (inactive); in the test on COLO 205, > 100 µM (inactive). Also, the GI50 is 96.8 µM (inactive) in the test on K562; > 100 µM (inactive) in the test on MDA-MB-231; 52.8 µM (inactive) with SR; > 100 µM (inactive) with PC-3; > 100 µM (inactive) in the test on IGROV-1; > 100 µM (inactive) with SK-MEL-2. The GI50 is > 100 µM (inactive) in the test with 786-0; > 100 µM (inactive) in the test on OVCAR-8; > 100 µM (inactive) in the test on HT-29; 62.1 µM (inactive) with LOX IMVI; > 100 µM (inactive) in the test on T47D.

Turning to `Cc1c2c(c(C)c3c4c(oc13)CCCC4)C=NCC2`, the GI50 is 0.818 µM (active) in the test on RPMI-8226; 13.1 µM (inactive) with UO-31; 13.2 µM (inactive) in the test on CAKI-1; 14.9 µM (inactive) with SK-MEL-5; 18.9 µM (inactive) in the test with SK-MEL-28; 19.5 µM (inactive) in the test on COLO 205. Further, the GI50 was 11.1 µM (inactive) in the test on K562; 16.4 µM (inactive) in the test with MDA-MB-231; 6.58 µM (inactive) in the test on SR; 14.4 µM (inactive) in the test with MDA-MB-435; 13.6 µM (inactive) in the test with IGROV-1; 17.1 µM (inactive) with SK-MEL-2. For the same molecule, the GI50 in the test on 786-0 was 35.2 µM (inactive); in the test with RXF 393, 3.66 µM (inactive); in the test on OVCAR-8 it was 10.6 µM (inactive); in the test on HT-29, 6.64 µM (inactive); in the test with LOX IMVI it was 20.5 µM (inactive); with T47D, 35.6 µM (inactive).

Take `COCN1C(=O)[C@@H]2CCCN2C(=O)c2ccc(N)cc21`: the GI50 in the test with RPMI-8226, with UO-31, in the test with CAKI-1, with SK-MEL-5, in the test with SK-MEL-28 and with COLO 205 was > 100 µM (inactive) throughout. The GI50 in the test with K562, in the test on MDA-MB-231, with SR, in the test on MDA-MB-435, with PC-3 and in the test with IGROV-1 was > 100 µM (inactive) in each case. Besides, the GI50 in the test with SK-MEL-2, in the test with 786-0, in the test with RXF 393, with OVCAR-8, in the test on HT-29 and in the test on LOX IMVI was > 100 µM (inactive) each time.

On to `c1ccc2c(c1)NC(C1OC3CCCN3C1C1Nc3ccccc3S1)S2` (stereo unspecified), for which the GI50 in the test with RPMI-8226 is 23 µM (inactive); in the test with UO-31, 55.1 µM (inactive); with CAKI-1, > 100 µM (inactive); with SK-MEL-5, 39.6 µM (inactive); with SK-MEL-28, > 100 µM (inactive); in the test on COLO 205, 83.6 µM (inactive). Further, the GI50 in the test on K562 is 31 µM (inactive); with SR it was 22.3 µM (inactive); with MDA-MB-435, 75.2 µM (inactive); in the test on PC-3, 44.1 µM (inactive); in the test on IGROV-1, > 100 µM (inactive); with 786-0, > 100 µM (inactive). In addition, the GI50 in the test on RXF 393 was 21.2 µM (inactive); with OVCAR-8, 52.1 µM (inactive); in the test on HT-29 it was 44.4 µM (inactive).

On to `O=c1c2cccnc2ncn1CCCN1CCCCC1`, for which the GI50 in the test with UO-31, in the test on CAKI-1, in the test with SK-MEL-5, in the test with SK-MEL-28, with COLO 205 and in the test on K562 was > 100 µM (inactive) throughout. Also, the GI50 in the test on SR, in the test on IGROV-1, with SK-MEL-2, in the test on 786-0, with RXF 393 and in the test on OVCAR-8 was > 100 µM (inactive) each time. For the same molecule, the GI50 with HT-29 and in the test on LOX IMVI was > 100 µM (inactive) each time.

Consider `CCOC(=O)C(NC(=O)Nc1ccccc1F)(OC)C(F)(F)F` (stereo unspecified), for which the GI50 with RPMI-8226 was > 100 µM (inactive); in the test with UO-31 it was > 100 µM (inactive); in the test with CAKI-1, 44.5 µM (inactive); in the test on SK-MEL-5 it was > 100 µM (inactive); in the test on SK-MEL-28 it was > 100 µM (inactive); with COLO 205 it was > 100 µM (inactive). Further, the GI50 in the test with K562, in the test with SR, with MDA-MB-435, in the test with PC-3, in the test with IGROV-1 and with SK-MEL-2 was > 100 µM (inactive) each time. For the same molecule, the GI50 with 786-0, in the test on RXF 393, in the test with OVCAR-8, in the test on HT-29, in the test with LOX IMVI and with T47D was > 100 µM (inactive) throughout.

Regarding `COc1ccc(NN=C2C(=O)CCC2=O)cc1`, the GI50 in the test on UO-31 was 98.9 µM (inactive); with CAKI-1 it was > 100 µM (inactive); with SK-MEL-5, 48.2 µM (inactive); in the test on SK-MEL-28, > 100 µM (inactive); in the test on COLO 205, 47.2 µM (inactive); in the test with K562, > 100 µM (inactive). Besides, the GI50 with IGROV-1, in the test with SK-MEL-2, in the test with 786-0, in the test with RXF 393, in the test with OVCAR-8 and with HT-29 was > 100 µM (inactive) throughout. The GI50 in the test on LOX IMVI was > 100 µM (inactive).

Turning to `COc1cc(O)c2c(=O)c(O)c(-c3ccc(O)c(OC)c3)oc2c1` [RHAMNAZIN], the GI50 with RPMI-8226 was 5.98 µM (inactive); in the test on CAKI-1, 3.5 µM (inactive); in the test with COLO 205, 33.7 µM (inactive); in the test on K562, 4.37 µM (inactive); in the test on MDA-MB-231, 5.57 µM (inactive); in the test with PC-3 it was 11 µM (inactive). The GI50 in the test with IGROV-1 is > 100 µM (inactive); in the test with SK-MEL-2 it was > 100 µM (inactive); with 786-0, 3.44 µM (inactive); with OVCAR-8, 3.52 µM (inactive); in the test with HT-29, 44.2 µM (inactive); in the test on LOX IMVI it was 3.19 µM (inactive). In addition, in the test with T47D, the GI50 was > 100 µM (inactive).
